# Like-named read-outs stand apart in the source and are kept apart here.
# Assays:
# [1] = target: T1, COX-2 (Mus musculus, UniProt Q05769); assay: Cell-based COX-2 assay (PGE2 in LPS/IFN-g stimulated RAW264.7 cells); details: RAW264.7 murine macrophages, 1 μg/ml LPS and 10 U/ml IFN-g for 7 h, PGE2 readout
# T1 construct: endogenous in cells; host or cells: RAW264.7 murine macrophages, stimulated with LPS and IFN-g
# T1 sequence (Q05769 18-604): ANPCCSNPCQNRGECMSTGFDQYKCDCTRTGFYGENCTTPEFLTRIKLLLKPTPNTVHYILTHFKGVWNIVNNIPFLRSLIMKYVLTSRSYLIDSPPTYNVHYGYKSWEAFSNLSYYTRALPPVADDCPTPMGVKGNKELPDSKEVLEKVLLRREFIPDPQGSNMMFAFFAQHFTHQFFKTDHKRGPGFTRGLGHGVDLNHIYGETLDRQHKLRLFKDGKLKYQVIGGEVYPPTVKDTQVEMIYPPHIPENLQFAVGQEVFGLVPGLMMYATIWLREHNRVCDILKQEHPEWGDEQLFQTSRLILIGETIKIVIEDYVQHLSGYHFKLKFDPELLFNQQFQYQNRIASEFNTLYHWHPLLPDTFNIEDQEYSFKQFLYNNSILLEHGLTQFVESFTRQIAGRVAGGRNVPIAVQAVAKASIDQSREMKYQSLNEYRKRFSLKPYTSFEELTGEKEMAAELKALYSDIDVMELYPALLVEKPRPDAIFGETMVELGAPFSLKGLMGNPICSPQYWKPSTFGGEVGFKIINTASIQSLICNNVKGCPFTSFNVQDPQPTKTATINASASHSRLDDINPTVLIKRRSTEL
# Protocol: RAW264.7 murine macrophages were obtained from the Cell Bank of Shanghai Institute of Biochemistry and Cell Biology, Chinese Academy of Sciences (Shanghai, China) and cultured in Dulbecco's modified Eagle's medium containing 100 U/ml penicillin and 100 μg/ml streptomycin at 37° C. in 5% CO2.
# RAW264.7 cells were plated at a density of 2.5×10^5/ml cells in a 96-well plate with 0.1 ml of culture medium per well and cultured overnight. The cells were pre-incubated for 30 min with various doses of compounds and stimulated for 7 h with 1 μg/ml LPS and 10 U/ml IFN-g. The cell culture supernatants were collected immediately following treatment and centrifuged at 1,000 rpm for 5 min to remove the particulate matter. PGE2 was determined using a Prostaglandin E2 assay kit (catalog no. 62P2APEB; Cisbio Co.,). 10 μL of cell supernatant was transferred to a 384-well low volume plate (e.g. Corning® 3544), 5 μL of PGE2-d2 was added, followed by 5 μL anti-PGE2 Cryptate as a negative control. Replace the standard by 10 μL of diluent and PGE2-d2 by 5 μL of reconstitution buffer, Cal0 (for positive control), replace the standard by 10 μL of diluent. Incubate at 4° C. overnight. After centrifuging at 1,000 rpm for 1 min, the dual fluorescence emissions of 615 and 665 nm with a 320 nm excitation were measured using an Envision plate reader (Perkin Elmer, Shelton, Conn.). The results are expressed as the ratio of 665 nm/615 nm emissions.
# (§1) Dose-response curves were generated using XLFit (IDBS, Surrey, UK) or Prism (GraphPad Software, La Jolla, Calif., US) to calculate IC50 values for each compound tested.
# [2] = target: T2, ovine COX-1 (Ovis aries, UniProt P05979); assay: biochemical
# T2 sequence (P05979 25-600): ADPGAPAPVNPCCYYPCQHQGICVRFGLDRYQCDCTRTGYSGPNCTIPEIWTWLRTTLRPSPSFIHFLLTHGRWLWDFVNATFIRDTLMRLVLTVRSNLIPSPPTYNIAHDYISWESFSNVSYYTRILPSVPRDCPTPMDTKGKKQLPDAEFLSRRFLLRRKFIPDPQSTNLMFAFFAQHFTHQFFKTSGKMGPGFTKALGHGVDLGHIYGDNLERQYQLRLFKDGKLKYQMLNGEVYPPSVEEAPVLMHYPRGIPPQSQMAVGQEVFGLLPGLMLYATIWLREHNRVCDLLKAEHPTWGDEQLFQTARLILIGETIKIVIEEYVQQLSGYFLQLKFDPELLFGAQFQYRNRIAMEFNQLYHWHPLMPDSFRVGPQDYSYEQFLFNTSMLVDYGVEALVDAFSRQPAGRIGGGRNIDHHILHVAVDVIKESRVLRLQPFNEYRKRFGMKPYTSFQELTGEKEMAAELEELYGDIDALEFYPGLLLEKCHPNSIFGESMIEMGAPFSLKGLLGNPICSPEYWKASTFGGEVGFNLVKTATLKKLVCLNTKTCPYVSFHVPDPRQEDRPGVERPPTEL
# Protocol: (§2) The ability of compounds to inhibit ovine COX-1 and human COX-2 was determined using a commercially available enzyme immunoassay (EIA) kit (catalog no. 701090 (COX-1); 701080 (COX-2) Cayman Chemical Co., Ann Arbor, Mich., USA) according to the manufacturer's protocol. COX catalyzes the first step in the biosynthesis of AA to PGH2. PGF2α, produced from PGH2 by reduction with stannous chloride, was measured by EIA (ACE™ competitive EIA, Cayman Chemical, Ann Arbor, Mich., USA). Briefly, to a series of supplied reaction buffer solutions [960 μl 0.1 M Tris-HCl (pH 8.0) containing 5 mM EDTA and 2 mM phenol] with either COX-1 or COX-2 (10 μl) enzyme in the presence of heme (10 μl), 10 μl of various concentrations of test drug solutions were added. These solutions were incubated for 15 min at 37° C. and subsequently 10 μl AA solution (100 μM) was added. The COX reaction was stopped by the addition of 30 μl stannus chloride after 2 min, mixed immediately, supernatants were 2000 fold diluted. The produced PGF2α was measured by EIA. This assay is based on the competition between PGs and a PG-acetylcholinesterase conjugate (PG tracer) for a limited amount of PG antiserum. The amount of PG tracer that is able to bind to the PG antiserum is inversely proportional to the concentration of PGs in the wells since the concentration of the PG tracer is held at a constant while the concentration of PGs varies. The specific antiserum-PG complex bound to a mouse anti-rabbit IgG that had been previously attached to the well. The plate was washed to remove any unbound reagents and 200 μl Ellman's reagent (5,5′-dithiobis-(2-nitrobenzoic acid), which contains the substrate to acetylcholine esterase, was added to the well. The product of this enzymatic reaction generates a distinct yellow color that absorbs at 406 nm. The intensity of this color, determined by spectrophotometry, is proportional to the amount of PG tracer bound to the well, which is inversely proportional to the amount of PGs present in the well during the incubation. Percent inhibition was calculated by the comparison of the compounds treated to the various control incubations.
# as §1
# [3] = target: T3, human COX-2 (Homo sapiens, UniProt P35354); assay: COX-2 enzyme assay (EIA kit, PGF2α readout); type: biochemical
# T3 construct: purchased Cayman Chemical Co., Ann Arbor, Mich., USA 701080
# T3 sequence (P35354 18-604): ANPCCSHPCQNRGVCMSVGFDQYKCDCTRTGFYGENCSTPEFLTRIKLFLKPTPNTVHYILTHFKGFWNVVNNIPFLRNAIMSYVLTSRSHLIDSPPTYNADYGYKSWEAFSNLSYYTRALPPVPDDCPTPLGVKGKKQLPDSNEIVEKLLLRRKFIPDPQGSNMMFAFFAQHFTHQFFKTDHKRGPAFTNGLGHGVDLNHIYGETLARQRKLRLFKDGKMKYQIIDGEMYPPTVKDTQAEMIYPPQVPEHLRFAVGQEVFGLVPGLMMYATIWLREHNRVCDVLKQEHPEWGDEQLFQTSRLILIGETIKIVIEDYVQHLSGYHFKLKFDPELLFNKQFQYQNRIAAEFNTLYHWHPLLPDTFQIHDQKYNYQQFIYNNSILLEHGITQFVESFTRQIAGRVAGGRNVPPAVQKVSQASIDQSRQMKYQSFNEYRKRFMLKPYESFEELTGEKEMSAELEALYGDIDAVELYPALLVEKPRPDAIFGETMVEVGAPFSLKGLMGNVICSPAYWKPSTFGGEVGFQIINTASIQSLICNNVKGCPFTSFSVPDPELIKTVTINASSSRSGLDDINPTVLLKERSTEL
# Protocol: as §2, §1
# [4] = ovine COX-1 enzyme, EIA, read-out: COX-1 IC50 (μm) enzyme
# [5] = human COX-2 enzyme, EIA, 15 min pre-incubation at 37° C., read-out: COX-2 IC50 (μM) enzyme
SMILES,IC50 [1],"IC50 [2, 4]","IC50 [3, 5]",IC50 [2],IC50 [3]
COc1ccc2c(c1)c(CC(=O)NCCCCCCCNC(=O)[c-]1cccc1)c(C)n2C(=O)c1ccc(Cl)cc1.[C-]#[O+].[C-]#[O+].[C-]#[O+].[Re+] [Compound 246],0.2 µM,> 30000 nM,0.1 µM,–,–
COc1ccc2c(c1)c(CC(=O)NCCCCCC[N+]13CC[S][Re-]14(=[O])[S]CC[N]4C(=O)C3)c(C)n2C(=O)c1ccc(Cl)cc1 (stereo not shown) [Compound 260],0.2 µM,> 30000 nM,0.3 µM,–,–
COc1ccc2c(c1)c(CCNCc1ccccn1)c(C)n2C(=O)c1ccc(Cl)cc1 [Compound 369],–,> 30000 nM,–,–,–
COc1ccc2c(c1)c(CC(=O)NCCCCCCC[N+]13CC[S][Re-]14(=[O])[S]CC[N]4CC3)c(C)n2C(=O)c1ccc(Cl)cc1 (stereo not shown) [Compound 305],0.1 µM,–,–,> 30000 nM,0.3 µM
COc1ccc2c(c1)c(CC(=O)NCCCCCC[N+]13CC[S][Re-]14(=[O])[S]CC[N]4CC3)c(C)n2C(=O)c1ccc(Cl)cc1 (stereo not shown) [Compound 275],0.2 µM,> 30000 nM,0.7 µM,–,–
COc1ccc2c(c1)c(CC(=O)NCCCCCCNC(=O)[c-]1cccc1)c(C)n2C(=O)c1ccc(Cl)cc1.[C-]#[O+].[C-]#[O+].[C-]#[O+].[Re+] [Compound 242],0.4 µM,> 30000 nM,0.3 µM,–,–
COc1ccc2c(c1)c(CC(=O)NCCCOCCC[N+]13CC[S][Re-]14(=[O])[S]CC[N]4CC3)c(C)n2C(=O)c1ccc(Cl)cc1 (stereo not shown) [Compound 306],0.2 µM,> 30000 nM,0.7 µM,–,–

# From patent publication US9850183B2, “Conjugates derived from non-steroidal anti-inflammatory drugs and methods of use thereof in imaging” (Reiley Pharmaceuticals, Inc., priority 2014, dated 2017)
